Reference: patent US20090137577A1, “HETEROCYCLIC COMPOUNDS” (Pfizer Inc., priority 2007, published 2009)
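Further: HEK cells stably expressing human mGluR2 with GL15 G protein, Fluo-4 calcium fluorescence read on FLIPR, compounds added before an EC10-EC20 glutamate challenge to detect potentiation.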

Each molecule was assayed against T1, mGluR2 receptor (metabotropic glutamate receptor 2) (Homo sapiens, UniProt Q14416) (assay: mGluR2 potentiator screen (FLIPR, EC10-EC20 glutamate challenge)). Details: geometric mean; read-out: mGluR 2 EC50 (geometric mean).
T1 construct: expressed in transfected cells
T1 sequence (Q14416 19-872, species assumed): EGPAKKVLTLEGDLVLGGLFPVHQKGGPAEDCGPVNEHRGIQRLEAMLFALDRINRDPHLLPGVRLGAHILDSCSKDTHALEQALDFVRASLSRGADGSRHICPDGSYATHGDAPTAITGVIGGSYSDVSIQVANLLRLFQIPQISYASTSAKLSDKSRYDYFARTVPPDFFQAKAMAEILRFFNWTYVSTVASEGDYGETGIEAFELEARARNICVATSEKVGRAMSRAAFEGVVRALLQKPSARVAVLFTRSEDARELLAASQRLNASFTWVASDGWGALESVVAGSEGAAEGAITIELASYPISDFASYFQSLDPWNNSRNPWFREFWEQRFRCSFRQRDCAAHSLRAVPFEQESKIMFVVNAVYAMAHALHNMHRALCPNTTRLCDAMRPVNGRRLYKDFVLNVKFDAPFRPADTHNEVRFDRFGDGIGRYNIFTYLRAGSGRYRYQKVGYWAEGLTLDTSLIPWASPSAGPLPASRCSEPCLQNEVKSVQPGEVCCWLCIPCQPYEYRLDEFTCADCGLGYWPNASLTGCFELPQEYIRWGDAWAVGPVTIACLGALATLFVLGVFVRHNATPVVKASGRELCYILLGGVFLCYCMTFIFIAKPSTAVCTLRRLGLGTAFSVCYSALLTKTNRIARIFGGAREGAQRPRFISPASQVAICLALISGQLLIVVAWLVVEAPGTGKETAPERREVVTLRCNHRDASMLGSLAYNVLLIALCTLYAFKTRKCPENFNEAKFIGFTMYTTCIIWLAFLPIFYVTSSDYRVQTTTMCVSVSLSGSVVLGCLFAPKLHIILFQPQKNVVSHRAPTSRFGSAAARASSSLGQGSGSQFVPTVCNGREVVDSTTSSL
Assay type: cell-based
Work on `C[C@@H]1CN(Cc2ccc(O[C@@H](C)c3ccccc3)cc2)C(=O)O1` [Example 69] yielded an EC50 of 173 nM. Work on `Cc1cc(CN2C[C@@H](C)OC2=O)ccc1OCC1CCCCC1` [Example 254, (5R)-3-[4-(Cyclohexylmethoxy)-3-methylbenzyl]-5-methyl-1,3-oxazolidin-2-one] yielded an EC50 of 71.2 nM. `CC1CN(Cc2ccc(OCc3ccc(Cl)cc3)cc2)C(=O)O1` (stereo not shown) [Example 89] gave an EC50 of 69.2 nM. Work on `CCN1CCN(Cc2ccc(OC(C)C3CCCCC3)cc2)C(=O)C1` (stereo not shown) [Example 188, 1-[4-(1-cyclohexylethoxy)benzyl]-4-ethylpiperazin-2-one] yielded an EC50 of 725 nM. Work on `C[C@H]1[C@@H](c2ccccc2)OC(=O)N1Cc1ccc(OCC2CCCCC2)cc1` [Example 27] yielded an EC50 of 1140 nM. `Cc1cc(CN2C[C@@H](C)OC2=O)ccc1Oc1ncc(Cl)cc1Cl` [Example 296, (5R)-3-{4-[(3,5-Dichloropyridin-2-yl)oxy]-3-methylbenzyl}-5-methyl-1,3-oxazolidin-2-one] gave an EC50 of 45.5 nM. Work on `CC1CN(Cc2ccc(OC(C)c3ccccc3)cc2)C(=O)O1` (stereo not shown) [Example 46] yielded an EC50 of 151 nM. For `COc1ccc(F)c(-c2ccc(CN3C[C@@H](C)OC3=O)cc2)c1` [Example 240], the EC50 was 120 nM. For `CCC(CC)Oc1ccc(CN2CC(C)OC2=O)cc1` (stereo not shown) [Example 136], the EC50 was 774 nM. `Cc1c(COc2ccc(CN3CC(C)OC3=O)cc2)cnn1-c1ccccc1` (stereo not shown) [Example 128] gave an EC50 of 595 nM. Work on `C[C@@H]1CN(Cc2ccc(CN3CCc4cc(Cl)ccc43)cc2)C(=O)O1` [Example 300, (5R)-3-{4-[(5-Chloro-2,3-dihydro-1H-indol-1-yl)methyl]benzyl}-5-methyl-1,3-oxazolidin-2-one] yielded an EC50 of 94.5 nM. With `CC1CN(Cc2ccc(OCCc3ccc(C#N)cc3)cc2)C(=O)O1` (stereo not shown) [Example 109] the EC50 was 219 nM. In the case of `C[C@@H]1CN(Cc2ccc(-c3ccc(C(F)(F)F)cc3F)cc2)C(=O)O1` [Example 234], the EC50 is reported as under 34.5 nM. For `CC1CN(Cc2ccc(OCc3c(F)cccc3F)cc2)C(=O)O1` (stereo not shown) [Example 106], the EC50 was 73.7 nM. In the case of `C[C@@H]1CN(Cc2ccc(-c3nc(C(C)(C)C)cs3)cc2)C(=O)O1` [Example 183], the EC50 is reported as 150 nM. Molecule `CC(Oc1ccc(CN2C(=O)O[C@H](c3ccccc3)[C@@H]2C)cc1)c1ccccc1` (stereo partly shown) [Example 50] has an EC50 of 263 nM. `CC(Oc1ccc(CN2CC(c3ccncc3)OC2=O)cc1)C1CCCCC1` (stereo not shown) [Example 209] gave an EC50 of 639 nM. `COc1c(-c2ccc(F)cc2)ccc(CN2C[C@@H](C)OC2=O)c1F` [Example 253] was tested, and the EC50 was 135 nM. With `CC(C)Oc1ccc(-c2ccc(CN3C[C@@H](C)OC3=O)cc2)c(F)c1` [Example 281] the EC50 was 8.14 nM. `CC(Oc1ccc(CN2CC(c3ccccn3)OC2=O)cc1)C1CCCCC1` (stereo not shown) [Example 207] was tested, and the EC50 was 63.5 nM. `C[C@@H]1CN(Cc2ccc(OCCC(C)(C)C)cc2)C(=O)O1` [Example 213] was tested, and the EC50 was 20.1 nM. Molecule `Cc1cc(-c2ccc(CN3C[C@@H](C)OC3=O)cc2)ccc1F` [Example 160] has an EC50 of 10.6 nM. `COc1cccc(OC)c1-c1ccc(CN2C[C@@H](C)OC2=O)cc1` [Example 161] was tested, and the EC50 was 227 nM. Work on `CC(C)Oc1ccc(CN2CC(c3ccccc3)OC2=O)cc1` (stereo not shown) [Example 44] yielded an EC50 of 572 nM. For `C[C@@H]1CN(Cc2ccc(-c3ccc(Cl)c(Cl)c3)nc2)C(=O)O1` [Example 261], the EC50 was 116 nM. `CC(=O)c1ccc(-c2ccc(CN3C[C@@H](C)OC3=O)cc2)cc1` [Example 171] showed an EC50 of 60.2 nM. Work on `CCC(CC)CN1CCN(Cc2ccc(OC(C)C3CCCCC3)cc2)C(=O)C1` (stereo not shown) [Example 217] yielded an EC50 of 947 nM. `C[C@@H]1CN(Cc2ccc(-c3cccc(F)c3Cl)cc2F)C(=O)O1` [Example 251] was tested, and the EC50 was 55.9 nM. Molecule `CC1CN(Cc2ccc(O[C@@H](C)c3ccccc3)cc2)C(=O)O1` (stereo partly shown) [Example 144] has an EC50 of 84.8 nM. In the case of `Cc1ccc(-c2ccc(CN3C[C@@H](C)OC3=O)cc2)c(F)c1` [Example 232], the EC50 is reported as under 39.2 nM. Molecule `CC[C@H](Oc1ccc(CN2CC(C)OC2=O)cc1)c1ccccc1` (stereo partly shown) [Example 148] has an EC50 of under 13.4 nM. `C[C@@H]1CN(Cc2ccc(COc3ccc(F)cc3F)cc2)C(=O)O1` [Example 305, (5R)-3-{4-[(2,4-Difluorophenoxy)methyl]benzyl}-5-methyl-1,3-oxazolidin-2-one] was tested, and the EC50 was 416 nM. For `CC[C@H](C)COc1ccc(CN2CC(C)OC2=O)cc1` (stereo partly shown) [Example 100], the EC50 was 55.9 nM. Work on `C[C@@H]1CN(Cc2ccc(-c3ccc(F)cc3Cl)cc2)C(=O)O1` [Example 274] yielded an EC50 of 31.3 nM. `O=C1OC(c2ccccc2)CN1Cc1ccc(OCc2cccnc2)cc1` (stereo not shown) [Example 13] was tested, and the EC50 was 218 nM. Molecule `C[C@@H]1CN(Cc2ccc(-c3ccc(C(F)(F)F)cc3F)cc2F)C(=O)O1` [Example 252] has an EC50 of 29.3 nM. Molecule `C[C@@H]1CN(Cc2ccc(-c3ccc(N(C)C)nc3)cc2)C(=O)O1` [Example 155] has an EC50 of 489 nM. `CCOc1cccc(COc2ccc(CN3CC(C)OC3=O)cc2)c1` (stereo not shown) [Example 138] showed an EC50 of 87.3 nM. For `CCCN1CCN(Cc2ccc(OC(C)C3CCCCC3)cc2)C(=O)C1` (stereo not shown) [Example 215], the EC50 was 435 nM. `CC1(C)CN(Cc2ccc(-c3ccc(F)cc3F)cc2)C(=O)O1` [Example 314] showed an EC50 of 18 nM. `CC1CN(Cc2ccc(OCCC3CC3)cc2)C(=O)O1` (stereo not shown) [Example 93] was tested, and the EC50 was 187 nM. In the case of `COc1ccc(Cl)cc1-c1ccc(CN2C[C@@H](C)OC2=O)cn1` [Example 266], the EC50 is reported as 562 nM. Molecule `CC(C)COc1ccc(CN2CC(C)(C)COC2=O)cc1` [Example 16] has an EC50 of 663 nM. `C[C@@H]1CN(Cc2ccc(-c3ccc(F)c(F)c3)cc2)C(=O)O1` [Example 245] showed an EC50 of 92.9 nM. In the case of `C[C@@H]1CN(Cc2ccc(-c3ccc4c(c3)CCO4)nc2)C(=O)O1` [Example 264], the EC50 is reported as 561 nM. `CC1CN(Cc2ccc(OCCC(C)(C)C)cc2)C(=O)O1` (stereo not shown) [Example 96] showed an EC50 of under 14.9 nM. With `C[C@@H]1CN(Cc2ccc(-c3cccc(Cl)c3F)cc2)C(=O)O1` [Example 235] the EC50 was under 23.5 nM. In the case of `COc1ccc(-c2ccc(CN3C[C@@H](C)OC3=O)cc2)c(F)c1F` [Example 242], the EC50 is reported as under 17.2 nM. Work on `C[C@@H]1CN(Cc2ccc(NCC3CCCCC3)nc2)C(=O)O1` [Example 283, (5R)-3-({6-[(Cyclohexylmethyl)amino]pyridin-3-yl}methyl)-5-methyl-1,3-oxazolidin-2-one] yielded an EC50 of 1290 nM. `COc1ccc(-c2ccc(CN3C[C@@H](C)OC3=O)cc2)cc1F` [Example 170] showed an EC50 of 34.2 nM. `C[C@@H]1CN(Cc2ccc(-c3cccc4cccnc34)cc2)C(=O)O1` [Example 173] gave an EC50 of 930 nM. `C[C@@H]1CN(Cc2ccc3c(c2)CCC(C)(C)O3)C(=O)O1` [Example 87, (5R)-3-[(2,2-Dimethyl-3,4-dihydro-2H-chromen-6-yl)methyl]-5-methyl-1,3-oxazolidin-2-one] was tested, and the EC50 was 1380 nM. Molecule `COc1ccc(C(C)C)cc1-c1ccc(CN2C[C@@H](C)OC2=O)cc1` [Example 156] has an EC50 of under 16.2 nM. Work on `C[C@@H]1CN(Cc2ccc(OCCCc3ccccc3)cc2)C(=O)O1` [Example 204, (5R)-5-methyl-3-[4-(3-phenylpropoxy)benzyl]-1,3-oxazolidin-2-one] yielded an EC50 of 24.8 nM. With `CC(Oc1ccc(CN2CCOC2=O)cc1)C1CCCCC1` (stereo not shown) [Example 42] the EC50 was 677 nM. `CC(C)N1Cc2ccc(-c3ccc(CN4C[C@@H](C)OC4=O)cc3)cc2C1` [Example 174] was tested, and the EC50 was 1620 nM. In the case of `CC1CN(Cc2ccc(OCc3ccc(-n4cccn4)cc3)cc2)C(=O)O1` (stereo not shown) [Example 131], the EC50 is reported as 125 nM. In the case of `O=C1OCCCN1Cc1ccc(OCCC2CCCCC2)cc1` [Example 34], the EC50 is reported as 282 nM. For `COc1ccc(F)c(F)c1-c1ccc(CN2C[C@@H](C)OC2=O)cn1` [Example 263], the EC50 was 1370 nM. Molecule `CC1CN(Cc2ccc(O[C@H]3C[C@H]4CC[C@@H]3C4)cc2)C(=O)O1` (stereo partly shown) [Example 123] has an EC50 of 22.6 nM. Molecule `CC1CN(Cc2ccc(OC(C)C3CC3)cc2)C(=O)O1` (stereo not shown) [Example 135] has an EC50 of 1890 nM. `Cc1cc(CN2C[C@@H](C)OC2=O)ccc1OCc1ccc(F)cc1C(F)(F)F` [Example 285, (5R)-3-(4-{[4-fluoro-2-(trifluoromethyl)benzyl]oxy}-3-methylbenzyl)-5-methyl-1,3-oxazolidin-2-one] was tested, and the EC50 was 217 nM. With `C[C@@H]1CN(Cc2ccc(-c3cccc(Cl)c3F)c(F)c2)C(=O)O1` [Example 291, (5R)-3-[(3′-chloro-2,2′-difluorobiphenyl-4-yl)methyl]-5-methyl-1,3-oxazolidin-2-one] the EC50 was 59.6 nM. `C[C@@H]1CN(Cc2ccc(-c3ccc(C#N)cc3)cc2)C(=O)O1` [Example 191] gave an EC50 of 166 nM. Work on `Cc1ccc(C)n1-c1ccc(CN2C[C@@H](C)OC2=O)cc1` [Example 178, (5R)-3-[4-(2,5-dimethyl-1H-pyrrol-1-yl)benzyl]-5-methyl-1,3-oxazolidin-2-one] yielded an EC50 of 523 nM. In the case of `Cc1ccccc1COc1ccc(CN2C[C@@H](C)OC2=O)cc1` [Example 186], the EC50 is reported as 89 nM. Work on `C[C@@H]1CN(Cc2ccc(-c3ccc(N4CCCC4)nc3)cc2)C(=O)O1` [Example 158] yielded an EC50 of 151 nM. For `COc1ccc(F)c(COc2ccc(CN3CC(C)OC3=O)cc2)c1` (stereo not shown) [Example 151], the EC50 was 92.1 nM. Work on `Cc1ccc(Cl)cc1-c1ccc(CN2C[C@@H](C)OC2=O)cn1` [Example 259] yielded an EC50 of 1460 nM. Molecule `CC1CN(Cc2ccc(OC[C@@H](C)c3ccccc3)cc2)C(=O)O1` (stereo partly shown) [Example 111] has an EC50 of 48.3 nM. For `Cc1oc(-c2ccccc2)nc1CCOc1ccc(CN2CC(C)OC2=O)cc1` (stereo not shown) [Example 107], the EC50 was 273 nM. Work on `O=C1OC(c2ccccc2)CN1Cc1ccc(OC2CCCCC2)cc1` (stereo not shown) [Example 40] yielded an EC50 of 155 nM. Molecule `CC1CN(Cc2ccc(OC(C)Cc3ccccc3)cc2)C(=O)O1` (stereo not shown) [Example 122] has an EC50 of 40.7 nM. With `Cc1cc(F)ccc1-c1ccc(CN2C[C@@H](C)OC2=O)cc1F` [Example 290] the EC50 was 130 nM. Work on `CC(Oc1ccc(CN2CC(c3ccccc3)OC2=O)cc1)c1ccccc1` (stereo not shown) [Example 39] yielded an EC50 of 244 nM. In the case of `O=C1OC(c2cccnc2)CN1Cc1ccc(-c2ccc(OC(F)(F)F)cc2F)cc1` (stereo not shown) [Example 303, 3-{[2′-Fluoro-4′-(trifluoromethoxy)biphenyl-4-yl]methyl}-5-pyridin-3-yl-1,3-oxazolidin-2-one], the EC50 is reported as 77.7 nM. `C[C@@H]1CN(Cc2ccc(-c3ccc(Cl)cc3F)cc2)C(=O)O1` [Example 256] was tested, and the EC50 was under 39.8 nM. `C[C@H]1[C@@H](c2ccccc2)OC(=O)N1Cc1ccc(OCc2ccccc2)cc1` [Example 29] was tested, and the EC50 was 467 nM. Molecule `Cc1cc(-c2ccc(CN3C[C@@H](C)OC3=O)cn2)ccc1F` [Example 271] has an EC50 of 475 nM.
